Experimental data taken from ChEMBL document CHEMBL4765457, “Targeting dual tolerant regions of binding pocket: Discovery of novel morpholine-substituted diarylpyrimidines as potent HIV-1 NNRTIs with significantly improved water solubility” (Eur J Med Chem, 2020).
pEC50: −log10 of the molar value.

Experiments:
[1] = tested on: Human immunodeficiency virus 1; test: Antiviral activity against HIV1 3B infected in human MT4 cells assessed as virus-induced cytopathic effect incubated for 5 days by MTT assay; type: functional, organism-based; details: Human immunodeficiency virus 1, 3B, MT4, 120 h
[2] = tested on: Human immunodeficiency virus 1; test: Antiviral activity against HIV1 RES056 infected in human MT4 cells assessed as inhibition of virus-induced cytopathic effect incubated for 5 days by MTT assay; type: functional, organism-based; details: Human immunodeficiency virus 1, RES056, MT4, 120 h
[3] = Cytotoxicity against human MT4 cells assessed as reduction in cell viability incubated for 5 days by MTT assay; type: cell-based; details: time 5 day
[4] = Selectivity index, ratio of CC50 for human MT4 cells to EC50 for antiviral activity against HIV1 3B infected in human MT4 cells; type: toxicity, cell-based; details: read-out: Ratio CC50/EC50
[5] = Selectivity index, ratio of CC50 for human MT4 cells to EC50 for antiviral activity against HIV1 RES056 infected in human MT4 cells; type: toxicity, cell-based; details: read-out: Ratio CC50/EC50
[6] = tested on: Human immunodeficiency virus 1; test: Antiviral activity against HIV1 harboring RT L100I mutant infected in human MT4 cells assessed as inhibition of virus-induced cytopathic effect incubated for 5 days by MTT assay; type: functional, organism-based; details: Human immunodeficiency virus 1, MT4, 120 h
[7] = tested on: Human immunodeficiency virus 1; test: Antiviral activity against HIV1 harboring RT K103N mutant infected in human MT4 cells assessed as inhibition of virus-induced cytopathic effect incubated for 5 days by MTT assay; type: functional, organism-based; details: Human immunodeficiency virus 1, MT4, 120 h
[8] = tested on: Human immunodeficiency virus 1; test: Antiviral activity against HIV1 harboring RT Y181C mutant infected in human MT4 cells assessed as inhibition of virus-induced cytopathic effect incubated for 5 days by MTT assay; type: functional, organism-based; details: Human immunodeficiency virus 1, MT4, 120 h
[9] = tested on: Human immunodeficiency virus 1; test: Antiviral activity against HIV1 harboring RT Y188L mutant infected in human MT4 cells assessed as inhibition of virus-induced cytopathic effect incubated for 5 days by MTT assay; type: functional, organism-based; details: Human immunodeficiency virus 1, MT4, 120 h
[10] = tested on: Human immunodeficiency virus 1; test: Antiviral activity against HIV1 harboring RT E138K mutant infected in human MT4 cells assessed as inhibition of virus-induced cytopathic effect incubated for 5 days by MTT assay; type: functional, organism-based; details: Human immunodeficiency virus 1, MT4, 120 h
[11] = tested on: Human immunodeficiency virus 1; test: Antiviral activity against HIV1 harboring RT F227L/V106Amutant infected in human MT4 cells assessed as inhibition of virus-induced cytopathic effect incubated for 5 days by MTT assay; type: functional, organism-based; details: Human immunodeficiency virus 1, MT4, 120 h
[12] = Resistance index, ratio of EC50 for antiviral activity against HIV1 expressing RT L100I mutant infected in human MT4 cells to EC50 for antiviral activity against HIV1 3B infected in human MT4 cells; type: functional
[13] = Resistance index, ratio of EC50 for antiviral activity against HIV1 expressing RT K103N mutant infected in human MT4 cells to EC50 for antiviral activity against HIV1 3B infected in human MT4 cells; type: functional
[14] = Resistance index, ratio of EC50 for antiviral activity against HIV1 expressing RT Y181C mutant infected in human MT4 cells to EC50 for antiviral activity against HIV1 3B infected in human MT4 cells; type: functional
[15] = Resistance index, ratio of EC50 for antiviral activity against HIV1 expressing RT Y188L mutant infected in human MT4 cells to EC50 for antiviral activity against HIV1 3B infected in human MT4 cells; type: functional
[16] = Resistance index, ratio of EC50 for antiviral activity against HIV1 expressing RT E138K mutant infected in human MT4 cells to EC50 for antiviral activity against HIV1 3B infected in human MT4 cells; type: functional
[17] = Resistance index, ratio of EC50 for antiviral activity against HIV1 expressing RT F227L/V106A mutant infected in human MT4 cells to EC50 for antiviral activity against HIV1 3B infected in human MT4 cells; type: functional

| SMILES | pEC50 [1] | pEC50 [2] | CC50 at 120 h [3] [µM] | selectivity ratio [4] | selectivity ratio [5] | pEC50 [6] | pEC50 [7] | pEC50 [8] | pEC50 [9] | pEC50 [10] | pEC50 [11] | Ratio EC50 [12] | Ratio EC50 [13] | Ratio EC50 [14] | Ratio EC50 [15] | Ratio EC50 [16] | Ratio EC50 [17] |
| --- | --- | --- | --- | --- | --- | --- | --- | --- | --- | --- | --- | --- | --- | --- | --- | --- | --- |
| Cc1cc(C#N)cc(C)c1Oc1nc(NC2CCN(CC(=O)N3CCOCC3)CC2)nc2ccoc12 | 6.49 | < 3.90 | 125 | 383 | < 1 |  |  |  |  |  |  |  |  |  |  |  |  |
| Cc1cc(C#N)cc(C)c1Oc1nc(NC2CCN(CCN3CCOCC3)CC2)nc2ccoc12 | 5.96 | < 3.86 | 138 | 125 | < 1 |  |  |  |  |  |  |  |  |  |  |  |  |
| Cc1cc(C#N)cc(C)c1Oc1ccnc(NC2CCN(CCN3CCOCC3)CC2)n1 | 5.95 | < 3.61 | 246 | 219 | < 1 |  |  |  |  |  |  |  |  |  |  |  |  |
| Nc1ccn([C@@H]2CS[C@H](CO)O2)c(=O)n1 [LAMIVUDINE] | 5.30 | 5.08 | > 87.2 | > 17 | > 10 | 5.79 | 5.43 | 5.32 | 5.47 | 5.18 | 5.56 | 0.3 | 0.7 | 1 | 0.7 | 1.3 | 0.6 |
| Cc1cc(C#N)cc(C)c1Oc1nc(NC2CCN(CCN3CCOCC3)CC2)nc2c1COC2 | 6.44 | < 3.85 | 140 | 383 | < 1 |  |  |  |  |  |  |  |  |  |  |  |  |
| Cc1cc(C#N)cc(C)c1Oc1nc(NC2CCN(CC(=O)N3CCOCC3)CC2)nc2ccsc12 | 7.00 | < 4.38 | 41.9 | 416 | < 1 | 5.29 | 5.86 | 5.28 | 5.31 | 6.77 | ≤ 4.75 | 51.4 | 13.7 | 52.4 | 48.8 | 1.7 | >=178.1 |
| Cc1cc(C#N)cc(C)c1Oc1nc(NC2CCN(CC(=O)N3CCOCC3)CC2)nc2c1CCC2 | 6.97 | < 4.13 | 73.5 | 696 | < 1 | 4.80 | 5.60 | 4.97 | 5.19 | 5.95 | 4.57 | 150.4 | 24.1 | 100.8 | 61.4 | 10.6 | 256 |
| COc1cc2nc(NC3CCN(CCN4CCOCC4)CC3)nc(Oc3c(C)cc(C#N)cc3C)c2cc1OC | 5.75 | < 3.92 | 121 | 68 | < 1 |  |  |  |  |  |  |  |  |  |  |  |  |
| Cc1cc(C#N)cc(C)c1Oc1nc(NC2CCN(CCN3CCOCC3)CC2)nc2scnc12 | 6.54 | < 4.05 | 88.6 | 305 | < 1 |  |  |  |  |  |  |  |  |  |  |  |  |
| Cc1cc(C#N)cc(C)c1Oc1nc(NC2CCN(CC(=O)N3CCOCC3)CC2)nc2c1COC2 | 6.83 | < 3.74 | 184 | 1240 | < 1 |  |  |  |  |  |  |  |  |  |  |  |  |
| Cc1cc(C#N)cc(C)c1Oc1ccnc(NC2CCN(CC(=O)N3CCOCC3)CC2)n1 | 6.85 | < 3.84 | 143 | 1020 | < 1 |  |  |  |  |  |  |  |  |  |  |  |  |
| O=C1Nc2ccc(Cl)cc2[C@@](C#CC2CC2)(C(F)(F)F)O1 [EFAVIRENZ] |  |  | > 6.34 |  |  | 7.40 | 7.03 | 8.22 |  |  |  |  |  |  |  |  |  |
| Cc1cc(C#N)cc(C)c1Oc1nc(NC2CCN(CC(=O)N3CCOCC3)CC2)nc2c1CSC2 | 6.81 | < 4.19 | 64.6 | 420 | < 1 | 4.61 | 5.43 | 4.87 | 5.13 | 6.20 | 4.39 | 158.7 | 24.2 | 86.9 | 48.4 | 4.1 | 267.3 |
| Cc1cc(C#N)cc(C)c1Oc1nc(NC2CCN(CC(=O)N3CCOCC3)CC2)nc2scnc12 | 6.85 | < 3.89 | 129 | 919 | < 1 | 4.82 | 5.43 | 5.51 | 4.92 | 6.15 | 4.44 | 107.7 | 26.7 | 21.8 | 86 | 5 | 256.1 |
| Cc1cc(C#N)cc(C)c1Oc1nc(NC2CCN(CCN3CCOCC3)CC2)nc2c1CSC2 | 6.76 | < 4.55 | 28.5 | 164 | < 1 | 4.78 | 5.71 | 4.88 | 4.86 | 5.93 | 4.93 | 95.6 | 11.3 | 76.2 | 79.7 | 6.8 | 68.4 |
| Cc1cc(C#N)cc(C)c1Oc1nc(NC2CCN(CCN3CCOCC3)CC2)nc2ccccc12 | 6.30 | < 4.59 | 26 | 52 | < 1 |  |  |  |  |  |  |  |  |  |  |  |  |
| Cc1cc(C#N)cc(C)c1Oc1nc(NC2CCN(CC(=O)N3CCOCC3)CC2)nc2cc(F)ccc12 | 6.24 | < 4.79 | 41.1 | 71 | < 2.51 |  |  |  |  |  |  |  |  |  |  |  |  |
| Cc1cn([C@H]2C[C@H](N=[N+]=[N-])[C@@H](CO)O2)c(=O)[nH]c1=O [ZIDOVUDINE] | 7.72 | 7.62 | > 7.48 | > 397 | > 311 | 8.22 |  | 7.80 | 8.05 | 7.57 | 8.05 | 0.3 | 1 | 0.9 | 0.5 | 1.4 | 0.5 |
| Cc1cc(C#N)cc(C)c1Oc1nc(NC2CCN(CCN3CCOCC3)CC2)nc2c1CCC2 | 6.73 | < 4.31 | 49.1 | 261 | < 1 |  |  |  |  |  |  |  |  |  |  |  |  |
| Cc1cc(C#N)cc(C)c1Oc1nc(NC2CCN(Cc3ccc(S(N)(=O)=O)cc3)CC2)nc2ccsc12 |  |  |  |  |  |  |  |  |  |  | 8.38 | 2.4 | 2 | 2.3 | 2.1 | 2 | 3 |
| COc1cc2nc(NC3CCN(CC(=O)N4CCOCC4)CC3)nc(Oc3c(C)cc(C#N)cc3C)c2cc1OC | 5.66 | < 3.68 | 211 | 97 | < 1 | < 3.68 | 4.61 | < 3.68 | < 3.68 | < 3.68 | 6.01 | >96.8 | 11.4 | >96.8 | >96.8 | >96.8 | 0.4 |
| Cc1cc(C#N)cc(C)c1Oc1nc(NC2CCN(CCN3CCOCC3)CC2)nc2c1SCC2 | 6.94 | < 4.37 | 43 | 376 | < 1 |  |  |  |  |  |  |  |  |  |  |  |  |
| Cc1ccnc2c1NC(=O)c1cccnc1N2C1CC1 [NEVIRAPINE] |  | < 4.82 | > 15 | > 92 |  | 5.99 | 5.29 | 5.17 | ≤ 5.11 | 6.72 | ≤ 5.27 | 6.3 | 31.1 | 40.7 | >=46.9 | 1.2 | >=32.9 |
| Cc1cc(C#N)cc(C)c1Oc1nc(NC2CCN(CC(=O)N3CCOCC3)CC2)nc2ccccc12 | 6.22 | < 4.37 | 42.6 | 71 | < 1 |  |  |  |  |  |  |  |  |  |  |  |  |
